Data as given in US20250114356A1, “INDAZOLE BASED COMPOUNDS AND ASSOCIATED METHODS OF USE” (Arvinas Operations, Inc., priority 2020, published 2025).

Columns and labels:
[1] = target: T1, G2019S LRRK2 (Homo sapiens, UniProt Q5S007, G2019S); experiment: LRRK2 degradation assay, G2019S LRRK2-HiBit expressed from plasmid in HEK293 cells; type: cell-based; conditions: HEK293 cells transfected with HiBit-tagged G2019S LRRK2, 24 hours compound incubation
T1 construct: expressed in transfected cells; host or cells: HEK293 (ATCC CRL-1573), transient transfection, ubiquitin promoter
Summary of the method: (§1)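 DC50 and Dmax derived from per-plate curve fits of LRRK2-HiBit signal over firefly luciferase (cell number/viability), as % of DMSO median, from 6 replicates across two days. Compound exposure was 24 hours at 37° C. in HEK293 cells transfected with wild-type or G2019S LRRK2 bearing a C-terminal HiBit tag.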

[2] = target: T2, wildtype LRRK2 (Homo sapiens, UniProt Q5S007); experiment: LRRK2 degradation assay, wildtype LRRK2-HiBit expressed from plasmid in HEK293 cells; type: cell-based; conditions: HEK293 cells transfected with HiBit-tagged wildtype LRRK2, 24 hours compound incubation; for Dmax: read-out: **WT Dmax (%); for DC50: read-out: *WT DC50
T2 construct: expressed in transfected cells; host or cells: HEK293 (ATCC CRL-1573), transient transfection, ubiquitin promoter
Summary of the method: as §1

T2 sequence (Q5S007 whole entry): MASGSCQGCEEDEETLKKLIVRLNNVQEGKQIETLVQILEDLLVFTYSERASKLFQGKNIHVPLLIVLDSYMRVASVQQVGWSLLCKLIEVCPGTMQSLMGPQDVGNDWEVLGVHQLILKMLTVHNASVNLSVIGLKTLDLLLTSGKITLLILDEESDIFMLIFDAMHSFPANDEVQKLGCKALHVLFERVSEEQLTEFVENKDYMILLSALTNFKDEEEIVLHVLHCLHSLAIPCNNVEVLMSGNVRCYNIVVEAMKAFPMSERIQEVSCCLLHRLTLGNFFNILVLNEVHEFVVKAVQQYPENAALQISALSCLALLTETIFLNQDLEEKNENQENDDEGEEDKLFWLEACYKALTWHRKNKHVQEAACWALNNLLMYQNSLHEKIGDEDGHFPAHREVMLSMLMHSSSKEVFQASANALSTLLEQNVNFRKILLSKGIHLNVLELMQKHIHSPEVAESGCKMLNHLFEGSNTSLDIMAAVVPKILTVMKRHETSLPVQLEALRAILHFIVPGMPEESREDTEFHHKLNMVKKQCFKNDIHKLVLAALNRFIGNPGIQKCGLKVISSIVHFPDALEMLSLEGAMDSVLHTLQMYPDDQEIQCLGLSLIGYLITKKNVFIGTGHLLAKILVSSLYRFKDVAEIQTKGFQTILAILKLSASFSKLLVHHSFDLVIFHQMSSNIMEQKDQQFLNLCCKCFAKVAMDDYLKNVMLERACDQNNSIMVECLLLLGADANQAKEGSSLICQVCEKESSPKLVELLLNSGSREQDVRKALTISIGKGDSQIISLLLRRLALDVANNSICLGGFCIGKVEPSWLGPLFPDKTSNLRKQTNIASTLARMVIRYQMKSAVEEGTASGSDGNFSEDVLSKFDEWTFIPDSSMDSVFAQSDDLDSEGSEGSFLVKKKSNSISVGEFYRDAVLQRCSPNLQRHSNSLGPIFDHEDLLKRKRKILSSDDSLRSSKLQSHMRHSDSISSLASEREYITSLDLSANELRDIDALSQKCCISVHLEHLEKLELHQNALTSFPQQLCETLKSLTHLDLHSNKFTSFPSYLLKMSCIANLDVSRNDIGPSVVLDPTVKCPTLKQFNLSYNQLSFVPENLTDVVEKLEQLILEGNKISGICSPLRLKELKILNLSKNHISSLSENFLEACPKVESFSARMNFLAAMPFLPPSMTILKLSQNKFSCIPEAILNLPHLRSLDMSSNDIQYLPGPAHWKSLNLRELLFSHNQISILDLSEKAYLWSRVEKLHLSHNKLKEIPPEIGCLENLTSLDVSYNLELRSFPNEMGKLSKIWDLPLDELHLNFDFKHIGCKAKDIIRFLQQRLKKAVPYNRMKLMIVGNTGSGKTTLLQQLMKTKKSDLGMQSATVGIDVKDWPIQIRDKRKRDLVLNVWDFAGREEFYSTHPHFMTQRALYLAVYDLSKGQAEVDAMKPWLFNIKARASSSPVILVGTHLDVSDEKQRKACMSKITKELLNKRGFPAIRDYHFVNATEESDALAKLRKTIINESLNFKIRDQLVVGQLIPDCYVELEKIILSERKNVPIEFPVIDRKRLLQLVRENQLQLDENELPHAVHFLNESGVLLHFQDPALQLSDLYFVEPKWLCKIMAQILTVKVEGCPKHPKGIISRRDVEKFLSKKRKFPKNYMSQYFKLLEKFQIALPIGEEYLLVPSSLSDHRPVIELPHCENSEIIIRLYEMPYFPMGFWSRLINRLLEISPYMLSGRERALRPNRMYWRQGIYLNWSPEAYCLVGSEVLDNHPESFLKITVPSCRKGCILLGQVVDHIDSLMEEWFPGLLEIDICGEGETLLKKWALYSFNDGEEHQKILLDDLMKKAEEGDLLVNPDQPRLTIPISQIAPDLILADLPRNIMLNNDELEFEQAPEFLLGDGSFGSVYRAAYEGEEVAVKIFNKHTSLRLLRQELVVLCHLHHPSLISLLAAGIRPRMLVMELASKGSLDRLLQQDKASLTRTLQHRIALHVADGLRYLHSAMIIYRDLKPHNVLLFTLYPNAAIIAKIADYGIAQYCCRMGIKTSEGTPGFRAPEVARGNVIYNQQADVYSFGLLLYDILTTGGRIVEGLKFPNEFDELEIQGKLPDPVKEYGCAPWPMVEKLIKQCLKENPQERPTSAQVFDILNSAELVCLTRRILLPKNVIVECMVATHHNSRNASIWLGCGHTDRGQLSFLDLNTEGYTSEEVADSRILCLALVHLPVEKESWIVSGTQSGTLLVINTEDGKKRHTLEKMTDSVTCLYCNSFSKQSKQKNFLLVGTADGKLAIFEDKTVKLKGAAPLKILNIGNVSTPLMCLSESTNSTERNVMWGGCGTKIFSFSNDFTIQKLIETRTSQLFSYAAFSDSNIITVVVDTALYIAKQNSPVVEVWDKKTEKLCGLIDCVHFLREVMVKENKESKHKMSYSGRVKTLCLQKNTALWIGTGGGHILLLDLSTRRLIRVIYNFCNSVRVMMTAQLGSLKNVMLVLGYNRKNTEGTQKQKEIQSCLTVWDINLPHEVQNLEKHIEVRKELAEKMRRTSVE
T1 sequence (Q5S007 whole entry G2019S): as the sequence (Q5S007 whole entry) above, with G2019S counted along it

Structure (SMILES)	DC50 [1] [µM]	Dmax [1] [%]	Dmax [2] [%]	DC50 [2] [µM]
CC(C)Oc1ccc2[nH]nc(-c3cc(N4CCN(CCOCCOCCOc5ccc6c(c5)C(=O)N(C5CCC(=O)NC5=O)C6=O)[C@@H](C)C4)ncn3)c2c1 (stereo partly drawn) [compound 8, 2-(2,6-dioxopiperidin-3-yl)-5-[2-(2-{2-[(2S)-2-methyl-4-{6-[5-(propan-2-yloxy)-1H-indazol-3-yl]pyrimidin-4-yl}piperazin-1-yl]ethoxy}ethoxy)ethoxy]-2,3-dihydro-1H-isoindole-1,3-dione]	≥ 0.1	< 50	< 50	≥ 0.1
C[C@H]1CN(c2cc(-c3n[nH]c4ccc(OC5(C)CC5)cc34)ncn2)CCN1CCOCCN1CCN(c2ccc3c(c2)C(=O)N(C2CCC(=O)NC2=O)C3=O)CC1 (stereo partly drawn) [compound 20, 2-(2,6-dioxopiperidin-3-yl)-5-[4-(2-{2-[(2S)-2-mcthyl-4-{6-[5-(1-methylcyclopropoxy)-1H-indazol-3-yl]pyrimidin-4-yl}piperazin-1-yl]ethoxy}ethyl)piperazin-1-yl]-2,3-dihydro-1H-isoindole-1,3-dione]	< 0.01	50 to 70	50 to 70	< 0.01
CC(C)Oc1ccc2[nH]nc(-c3cc(N4CCN(CCN5CCC(CN6CCN(c7ccc8c(c7)CN(C7CCC(=O)NC7=O)C8=O)CC6)CC5)[C@@H](C)C4)ncn3)c2c1 (stereo partly drawn) [compound 31, 3-(5-{4-[(1-{2-[(2S)-2-methyl-4-{6-[5-(propan-2-yloxy)-1H-indazol-3-yl]pyrimidin-4-yl}piperazin-1-yl]ethyl}piperidin-4-yl)methyl]piperazin-1-yl}-1-oxo-2,3-dihydro-1H-isoindol-2-yl)piperidine-2,6-dione]	0.01 to 0.05	≥ 70	≥ 70	< 0.01
C[C@@H]1CN(c2cc(-c3n[nH]c4ccc(OC5(C)CC5)cc34)ncn2)C[C@H](C)N1CCOCCOCCOCCOc1ccc2c(c1)C(=O)N(C1CCC(=O)NC1=O)C2=O (stereo partly drawn) [compound 7, 5-{2-[2-(2-{2-[(2R,6S)-2,6-dimethyl-4-{6-[5-(1-methylcyclopropoxy)-1H-indazol-3-yl]pyrimidin-4-yl}piperazin-1-yl]ethoxy}ethoxy)ethoxy]ethoxy}-2-(2,6-dioxopiperidin-3-yl)-2,3-dihydro-1H-isoindole-1,3-dione]	< 0.01	50 to 70	≥ 70	< 0.01
CC(C)Oc1cc2c(-c3ccnc(N4CCN(CCOCCOCCOCCOc5ccc6c(c5)C(=O)N(C5CCC(=O)NC5=O)C6=O)[C@@H](C)C4)c3)n[nH]c2cc1F (stereo partly drawn) [compound 14, 2-(2,6-dioxopiperidin-3-yl)-5-{2-[2-(2-{2-[(2S)-4-{4-[6-fluoro-5-(propan-2-yloxy)-1H-indazol-3-yl]pyridin-2-yl}-2-methylpiperazin-1-yl]ethoxy}ethoxy)ethoxy]ethoxy}-2,3-dihydro-1H-isoindole-1,3-dione]	≥ 0.1	50 to 70	≥ 70	≥ 0.1
CC(C)Oc1ccc2[nH]nc(-c3cc(N4CCN(CC[C@@H]5CCN(CC6CCN(c7ccc8c(c7)C(=O)N(C7CCC(=O)NC7=O)C8=O)CC6)C5)CC4)ncn3)c2c1 (stereo partly drawn) [compound 43, 2-(2,6-dioxopiperidin-3-yl)-5-(4-(((S)-3-(2-(4-(6-(5-isopropoxy-1H-indazol-3-yl)pyrimidin-4-yl)piperazin-1-yl)ethyl)pyrrolidin-1-yl)methyl)piperidin-1-yl)isoindoline-1,3-dione]	0.01 to 0.05	50 to 70	≥ 70	0.01 to 0.05
CC(C)Oc1ccc2[nH]nc(-c3cc(N4C[C@@H](C)N(CCOCCOCCOCCOc5ccc6c(c5)C(=O)N(C5CCC(=O)NC5=O)C6=O)[C@@H](C)C4)ncn3)c2c1 (stereo partly drawn) [compound 10, 5-{2-[2-(2-{2-[(2R,6S)-2,6-dimethyl-4-{6-[5-(propan-2-yloxy)-1H-indazol-3-yl]pyrimidin-4-yl}piperazin-1-yl]ethoxy}ethoxy)ethoxy]ethoxy}-2-(2,6-dioxopiperidin-3-yl)-2,3-dihydro-1H-isoindole-1,3-dione]	0.01 to 0.05	50 to 70	50 to 70	0.01 to 0.05
